This is an account of results in publication PMC4414180, “SKI2162, an inhibitor of the TGF-β type I receptor (ALK5), inhibits radiation-induced fibrosis in mice” (Oncotarget, 2015).

One assay deals with T1, p38 MAPK (Homo sapiens, UniProt Q16539).
T1 construct: GST/histidine tag; made in house; host or cells: insect cells
Description: p38 MAPK selectivity, radioisotope-based (33P) kinase assay. It counts as biochemical. The conditions noted are these: Supplementary Table 1, unit inferred. As to the method: (§1) The kinase activity of ALK5, ALK1, and p38 MAPK were assessed by measuring radiolabelled phosphate (^33P) incorporation into casein. ALK1 and p38 MAPK are closely related to ALK5, and were used for comparison with ALK5 in a SKI2162 selectivity study. IC50 values were calculated from dose–response curves. […]
(§2) www.impactjournals.com/oncotarget/ Oncotarget, Advance Publications 2014 SUPPLEMENTARY METHODS AND MATERIALS
(§3) Cell culture and reagents ACC-3′ (reverse). All samples were normalized to A human keratinocyte cell line (HaCaT) and GAPDH and expressed as the fold induction. Relative an SV40-transformed human fibroblast cell line expression levels were calculated using the comparative (WI38VA13) were cultured in Minimum Essential threshold method. All reactions were done in triplicate.
(§4) Media (Gibco/Life Technologies, USA) or in Dulbecco’s Histopathologic evaluation and fibrosis-related Modified Eagle’s Medium (Gibco/Life Technologies, gene expression in RIF tissues USA), respectively, with 10% fetal bovine serum (Gibco/
(§5) Life Technologies, USA), in a humidified 5% CO2 The skin and soft tissue of the irradiated leg was […]

The next assay has as its target T2, ALK1 (Homo sapiens, UniProt P37023).
T2 construct: GST/histidine tag; made in house; host or cells: insect cells
Description: ALK1 selectivity, radioisotope-based (33P) kinase assay. The assay is classed as biochemical. The conditions noted are these: Supplementary Table 1, unit inferred. On the procedure: as §1, §2, §3, §4, §5

Structures are written as SMILES.

T1 sequence (Q16539 whole entry): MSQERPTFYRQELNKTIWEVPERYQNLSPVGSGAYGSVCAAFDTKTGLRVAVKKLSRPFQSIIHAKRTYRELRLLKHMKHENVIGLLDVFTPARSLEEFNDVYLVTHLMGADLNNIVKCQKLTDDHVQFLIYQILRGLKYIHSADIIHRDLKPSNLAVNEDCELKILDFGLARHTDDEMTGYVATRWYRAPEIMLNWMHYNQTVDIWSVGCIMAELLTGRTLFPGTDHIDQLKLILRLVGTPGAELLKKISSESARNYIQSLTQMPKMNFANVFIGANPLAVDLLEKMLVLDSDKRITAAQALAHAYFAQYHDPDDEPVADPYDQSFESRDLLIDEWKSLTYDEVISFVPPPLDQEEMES
T2 sequence (P37023 22-503, species assumed): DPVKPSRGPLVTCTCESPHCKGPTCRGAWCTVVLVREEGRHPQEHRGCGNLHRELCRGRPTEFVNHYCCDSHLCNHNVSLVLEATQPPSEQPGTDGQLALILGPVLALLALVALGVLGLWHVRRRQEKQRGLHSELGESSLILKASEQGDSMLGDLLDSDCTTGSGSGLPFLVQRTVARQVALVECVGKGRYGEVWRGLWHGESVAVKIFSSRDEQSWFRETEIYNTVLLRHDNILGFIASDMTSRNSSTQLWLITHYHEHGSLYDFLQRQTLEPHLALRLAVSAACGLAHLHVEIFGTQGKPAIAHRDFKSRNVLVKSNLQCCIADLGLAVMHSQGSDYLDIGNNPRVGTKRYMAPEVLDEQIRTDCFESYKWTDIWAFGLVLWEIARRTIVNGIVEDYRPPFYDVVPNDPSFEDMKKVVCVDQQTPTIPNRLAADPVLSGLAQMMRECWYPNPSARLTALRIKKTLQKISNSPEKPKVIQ

One may read the IC50 as the concentration at which inhibition is half-maximal. Low readings indicate greater potency in that assay, high ones weaker potency in that assay. For the compound `Cc1cccc(-c2nn3c(c2-c2ccnc4ccc(C(N)=O)cc24)CCC3)n1` [LY2157299], the IC50 stood at 0.379 µM against p38 MAPK and 9.9 µM against ALK1.
